Assay results taken from patent US5593969A, “Lipid-A analogs: monosaccharide and dissaccharide compounds for inhibiting binding of lipid A receptors to lipid A receptors” (IGEN Incorporated, priority 1993, dated 1997).

Experiments:
Pseudomonas aeruginosa = type: in vivo, Pseudomonas aeruginosa in ICR mice; conditions: Lipid-A at 1 μg/mouse
[1] = Serum antibody titre on Lipid-A by ELISA after liposome immunization; type: in vivo, Balb/c mice; conditions: Lipid-A liposomes with HEL[105-120], HEL primed
Method: i) A stock solution of lipids for the formation of liposomes was prepared by mixing 10 mM solutions of dimyristoyl phosphatidyl choline, dicetyl phosphate and cholesterol (all from Sigma Chemicals) in the ratio 1.0:0.11:0.75. This stock was aliquotted into 1.0 ml volumes and dried under argon and stored at -20° C. until used.
ii) 500 μg of immunogen 3D dissolved in CHCl3 was dried into a 50 ml round bottomed flask on a rotary evaporator. One aliquot of the lipid stock was dissolved in 1 ml of CHCl3 :MeOH (9:1) and added to the dried immunogen 3D. The dissolved lipids were thoroughly mixed then dried together on a rotary evaporator under argon until all solvent had been removed and then for an additional 15 mins. The flask was then placed in a high vacuum dessicator for 2 hrs. 1.0 ml of swelling solution, approximately 0.9% NaCl, was added to the dry lipid film with 0.5 g of glass beads and mixed vigorously by swirling and vortexing. Liposomes were allowed to swell at room temperature overnight. […]
Mice which were primed with HEL and immunized with Immunogen 3D("Imm-3D") and Lipid-A incorporated separately into liposomes along with the peptide HEL[105-120] […] Seven days after the final immunization, serum samples were taken and the titres of IgG and IgM anti-Lipid-A antibodies determined separately by ELISA. […]

tumor cells = test: Antitumor activity (Meth A fibrosarcoma, melanoma or Pro b cells); type: in vivo; conditions: 250, 100 or 10 μg/mouse or up to 10 μg/kg, intravenously or intratumorly

Question: Which results are given for Lipid-A?
Answer: protective activity against gram-negative bacteria (Pseudomonas aeruginosa): exhibits protective activity; IgG antibody responses to the eliciting antigen [1]: enhanced IgG antibody responses; tumor growth (tumor cells): retarded or prevented
